Experimental data reported in patent US12187713B2, “Immunomodulators, compositions and methods thereof” (Betta Pharmaceuticals Co., Ltd, priority 2019, dated 2025).

Columns and labels:
[1] = target: PD-1/PD-L1 (Homo sapiens (Human), UniProt Q9NZQ7); experiment: PD-1/PD-L1 Binding Assay (Alphascreen)
Method in brief: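 PD-1/PD-L1 binding detected by anti-6×His acceptor and streptavidin donor beads after 120 min in the dark at 25 °C. Beforehand, the two proteins were incubated 15 min at 25 °C with inhibitor at 0.015–300 nM (1% DMSO). IC50 comes from a log concentration–response curve.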

[2] = Pharmacokinetic Assay, single oral dose 5 mg/kg (Table 12); format: in vivo; settings: mouse, plasma concentration, C57 female mice, single oral dose 5 mg/kg
Experimental: Adult C57 female mice were received to single-dose of the test compounds with 15% DMSO, 10% Kolliphor^@HS 15 and 75% saline as excipients, the mice (n=3) were giving oral administration (intragastric administration) with the compounds at a dose of 5 mg/kg. Time of blood collection: 30 min, 2 h, 4 h. approximately 0.1 mL of whole blood was collected from retro-orbital venous plexus, and placed into tubes that contained K2-EDTA as an anticoagulant. The whole blood were centrifuged at 4° C. and 4000 rpm for 10 min. The plasma was transferred into centrifuge tubes, and stored at −20° C. until being analyzed. Concentrations of test compounds in the plasma samples were analyzed with liquid chromatography-tandem mass spectrometry (LC-MS/MS). Plasma concentration-time data of individual animals was analyzed using Microsoft Excel 2010.

Chain of PD-1/PD-L1 (Q9NZQ7 19-238): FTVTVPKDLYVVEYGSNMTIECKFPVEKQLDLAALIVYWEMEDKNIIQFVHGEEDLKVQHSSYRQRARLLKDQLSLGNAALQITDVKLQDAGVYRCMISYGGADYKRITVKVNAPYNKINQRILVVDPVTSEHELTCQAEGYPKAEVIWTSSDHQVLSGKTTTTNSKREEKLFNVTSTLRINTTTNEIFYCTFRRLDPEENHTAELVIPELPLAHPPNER

| IC50 ([1]; numeric values) [nM] | concentration at 0.5 h [2] [ng/mL] | concentration at 2 h [2] [ng/mL] | concentration at 4 h [2] [ng/mL] | IC50 ([1]; range symbols) [nM] | Structure (SMILES) |
| --- | --- | --- | --- | --- | --- |
| 164 | 303 | 642 | 626 | – | Cc1c(-c2nc3cc(CN4C[C@@H](F)[C@H](F)C4)c(OC(F)F)cc3o2)cccc1-c1cccc(-c2nc3cc(CN4CCC[C@H]4C(=O)O)c(OC(F)F)cc3o2)c1C [Example 18, ((6-(difluoromethoxy)-2-(3′-(6-(difluoromethoxy)-5-(((3R,4R)-3,4-difluoropyrrolidin-1-yl)methyl)benzo[d]oxazol-2-yl)-2,2′-dimethyl-[1,1′-biphenyl]-3-yl)benzo[d]oxazol-5-yl)methyl)-L-proline] |
| 25 | 68.6 | 155 | 81.1 | – | Cc1c(-c2nc3cc(CNCC(O)C(F)(F)F)c(OC(F)F)cc3o2)cccc1-c1cccc(-c2nc3cc(CN4CCC[C@H]4C(=O)O)c(OC(F)F)cc3o2)c1C (stereo partly drawn) [Example 22, ((6-(difluoromethoxy)-2-(3′-(6-(difluoromethoxy)-5-(((3,3,3-trifluoro-2-hydroxypropyl)amino)methyl)benzo[d]oxazol-2-yl)-2,2′-dimethyl-[1,1′-biphenyl]-3-yl)benzo[d]oxazol-5-yl)methyl)-L-proline] |
| 7.7 | 46.2 | 148 | 94.7 | – | Cc1c(-c2nc3cc(CN4CCN(C)C(C)C4)c(OC(F)F)cc3o2)cccc1-c1cccc(-c2nc3cc(CN4CCC[C@H]4C(=O)O)c(OC(F)F)cc3o2)c1C (stereo partly drawn) [Example 23, ((6-(difluoromethoxy)-2-(3′-(6-(difluoromethoxy)-5-((3,4-dimethylpiperazin-1-yl)methyl)benzo[d]oxazol-2-yl)-2,2′-dimethyl-[1,1′-biphenyl]-3-yl)benzo[d]oxazol-5-yl)methyl)-L-proline] |
| 0.83 | 19.9 | 192 | 155 | – | Cc1c(-c2nc3cc(CN4CC(C)C4)c(OC(F)F)cc3o2)cccc1-c1cccc(-c2nc3cc(CN4CCC[C@H]4C(=O)O)c(OC(F)F)cc3o2)c1C [Example 56, ((6-(difluoromethoxy)-2-(3′-(6-(difluoromethoxy)-5-((3-methylazetidin-1-yl)methyl)benzo[d]oxazol-2-yl)-2,2′-dimethyl-[1,1′-biphenyl]-3-yl)benzo[d]oxazol-5-yl)methyl)-L-proline] |
| 1.2 | 27.1 | 149 | 90 | – | Cc1c(-c2nc3cc(CN(C)[C@@H]4CCC[C@H]4O)c(OC(F)F)cc3o2)cccc1-c1cccc(-c2nc3cc(CN4CCC[C@H]4C(=O)O)c(OC(F)F)cc3o2)c1C [Example 57, ((6-(difluoromethoxy)-2-(3′-(6-(difluoromethoxy)-5-((((1R,2R)-2-hydroxycyclopentyl) (methyl)amino)methyl)benzo[d]oxazol-2-yl)-2,2′-dimethyl-[1,1′-biphenyl]-3-yl)benzo[d]oxazol-5-yl)methyl)-L-proline] |
| 1.8 | – | 137 | 111 | – | Cc1c(-c2nc3cc(CN4CCCC4)c(OC(F)F)cc3o2)cccc1-c1cccc(-c2nc3cc(CN4CCC[C@@H]4C(=O)O)c(OC(F)F)cc3o2)c1C [Example 66, ((6-(difluoromethoxy)-2-(3′-(6-(difluoromethoxy)-5-(pyrrolidin-1-ylmethyl)benzo[d]oxazol-2-yl)-2,2′-dimethyl-[1,1′-biphenyl]-3-yl)benzo[d]oxazol-5-yl)methyl)-D-proline] |
| 6.7 | 143 | 418 | 462 | – | Cc1c(-c2nc3cc(CN4CCC(C)(C)C4)c(OC(F)F)cc3o2)cccc1-c1cccc(-c2nc3cc(CN4CCC[C@H]4C(=O)O)c(OC(F)F)cc3o2)c1C [Example 67, ((6-(difluoromethoxy)-2-(3′-(6-(difluoromethoxy)-5-((3,3-dimethylpyrrolidin-1-yl)methyl)benzo[d]oxazol-2-yl)-2,2′-dimethyl-[1,1′-biphenyl]-3-yl)benzo[d]oxazol-5-yl)methyl)-L-proline] |
| 3.3 | 36.4 | 151 | 158 | – | Cc1c(-c2nc3cc(CN4CC=CC4)c(OC(F)F)cc3o2)cccc1-c1cccc(-c2nc3cc(CN4CCC[C@H]4C(=O)O)c(OC(F)F)cc3o2)c1C [Example 70, ((6-(difluoromethoxy)-2-(3′-(6-(difluoromethoxy)-5-((2,5-dihydro-1H-pyrrol-1-yl)methyl)benzo[d]oxazol-2-yl)-2,2′-dimethyl-[1,1′-biphenyl]-3-yl)benzo[d]oxazol-5-yl)methyl)-L-proline] |
| – | 247 | 299 | 167 | 5 to 50 | Cc1c(-c2nc3cc(CN4CC(C#N)C4)c(OC(F)F)cc3o2)cccc1-c1cccc(-c2nc3cc(CN4CCC[C@H]4C(=O)O)c(OC(F)F)cc3o2)c1C [Example 80, ((2-(3′-(5-((3-cyanoazetidin-1-yl)methyl)-6-(difluoromethoxy)benzo[d]oxazol-2-yl)-2,2′-dimethyl-[1,1′-biphenyl]-3-yl)-6-(difluoromethoxy)benzo[d]oxazol-5-yl)methyl)-L-proline] |
| – | 115 | 468 | 383 | 5 to 50 | C=C1CN(Cc2cc3nc(-c4cccc(-c5cccc(-c6nc7cc(CN8CCC[C@H]8C(=O)O)c(OC(F)F)cc7o6)c5C)c4C)oc3cc2OC(F)F)C1 [Example 81, ((6-(difluoromethoxy)-2-(3′-(6-(difluoromethoxy)-5-((3-methyleneazetidin-1-yl)methyl)benzo[d]oxazol-2-yl)-2,2′-dimethyl-[1,1′-biphenyl]-3-yl)benzo[d]oxazol-5-yl)methyl)-L-proline] |
| – | 75.9 | 146 | 135 | 0.1 to 5 | Cc1c(-c2nc3cc(CN4CC[C@@H](C(=O)O)C4)c(OC(F)F)cc3o2)cccc1-c1cccc(-c2nc3cc(CN4CC(C)(C)C4)c(OC(F)F)cc3o2)c1C [Example 85, (R)-1-((6-(difluoromethoxy)-2-(3′-(6-(difluoromethoxy)-5-((3,3-dimethylazetidin-1-yl)methyl)benzo[d]oxazol-2-yl)-2,2′-dimethyl-[1,1′-biphenyl]-3-yl)benzo[d]oxazol-5-yl)methyl)pyrrolidine-3-carboxylic acid] |
| – | 21.3 | 124 | 109 | 0.1 to 5 | Cc1c(-c2nc3cc(CN4CCC[C@H]4C(=O)O)c(OC(F)F)cc3o2)cccc1-c1cccc(-c2nc3cc(CN4CC5CC4C5)cc(C(F)(F)F)c3o2)c1C [Example 89] |
| 2.2 | 178 | 640 | 579 | – | Cc1c(-c2nc3cc(CN4CCC[C@H]4C(=O)O)c(OC(F)F)cc3o2)cccc1-c1cccc(-c2nc3cc(CN4CCCC4)c(C(F)(F)F)cc3o2)c1C [Example 101, ((6-(difluoromethoxy)-2-(2,2′-dimethyl-3′-(5-(pyrrolidin-1-ylmethyl)-6-(trifluoromethyl)benzo[d]oxazol-2-yl)-[1,1′-biphenyl]-3-yl)benzo[d]oxazol-5-yl)methyl)-L-proline] |
| 18 | 85.9 | 282 | 292 | – | Cc1c(-c2nc3cc(CN4CCC[C@H]4C(=O)O)c(OC(F)F)cc3o2)cccc1-c1cccc(-c2nc3cc(CN4CCCC4)c(F)c(F)c3o2)c1C [Example 102, ((2-(3′-(6,7-difluoro-5-(pyrrolidin-1-ylmethyl)benzo[d]oxazol-2-yl)-2,2′-dimethyl-[1,1′-biphenyl]-3-yl)-6-(difluoromethoxy)benzo[d]oxazol-5-yl)methyl)-L-proline] |
| 1 | 65.6 | 237 | 152 | – | Cc1c(-c2nc3cc(CN4CCC[C@H]4C(=O)O)c(OC(F)F)cc3o2)cccc1-c1cccc(-c2nc3cc(CN4CC[C@@H](C)C4)cnc3o2)c1C [Example 114, ((6-(difluoromethoxy)-2-(2,2′-dimethyl-3′-(6-(((R)-3-methylpyrrolidin-1-yl)methyl)oxazolo [5,4-b]pyridin-2-yl)-[1,1′-biphenyl]-3-yl)benzo[d]oxazol-5-yl)methyl)-L-proline] |
| – | 121 | 319 | 243 | 0.1 to 5 | COc1c(-c2nc3cc(CN4CCCC4)c(F)c(F)c3o2)cccc1-c1cccc(-c2nc3cc(CN4CCC[C@H]4C(=O)O)c(OC(F)F)cc3o2)c1C [Example 117, ((2-(3′-(6,7-difluoro-5-(pyrrolidin-1-ylmethyl)benzo[d]oxazol-2-yl)-2′-methoxy-2-methyl-[1,1′-biphenyl]-3-yl)-6-(difluoromethoxy)benzo[d]oxazol-5-yl)methyl)-L-proline] |

| Structure (SMILES) | IC50 ([1]; numeric values) [nM] | concentration at 0.5 h [2] [ng/mL] | concentration at 2 h [2] [ng/mL] | concentration at 4 h [2] [ng/mL] | IC50 ([1]; range symbols) [nM] |
| --- | --- | --- | --- | --- | --- |
| Cc1c(-c2nc3cc(CN4CCC[C@H]4C(=O)O)c(OC(F)F)cc3o2)cccc1-c1cccc(-c2nc3cc(CN4[C@H]5CC[C@@H]4CC5)c(OC(F)F)cc3o2)c1C [Example 72, ((2-(3′-(5-(((1s,4s)-7-azabicyclo[2.2.1]heptan-7-yl)methyl)-6-(difluoromethoxy)benzo[d]oxazol-2-yl)-2,2′-dimethyl-[1,1′-biphenyl]-3-yl)-6-(difluoromethoxy)benzo[d]oxazol-5-yl)methyl)-L-proline] | 0.98 | 42.6 | 140 | 132 | – |
